# Measurements as given in article PMC10893631, “Receptor-based pharmacophore modeling, molecular docking, synthesis and biological evaluation of novel VEGFR-2, FGFR-1, and BRAF multi-kinase inhibitors” (BMC Chemistry, 2024).
# Assays:
# Assay in all cases: NCI SRB growth inhibition (single dose 10 µM / five-dose)
# Format in all cases: cell-based, human
# 786–0 = settings: Homo sapiens; for inhibition at 10 µM: 786–0 (Renal cancer), read-out: GI%
# How it was run: (§1)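 Seeding varied with cell doubling time (5000–40,000 cells/well). Dilutions were 10-fold or ½ log, five levels in total. Sulforhodamine B staining (0.4% w/v, 10 min, room temperature) of TCA-fixed cells measured growth.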
# A498 = settings: Homo sapiens; for inhibition at 10 µM: A498 (Renal cancer), read-out: GI%
# How it was run: as §1
# HCT-15 = settings: Homo sapiens; for inhibition at 10 µM: HCT-15 (Colon cancer), read-out: GI%
# How it was run: as §1
# HL-60(TB) = settings: Homo sapiens; for inhibition at 10 µM: HL-60(TB) (Leukemia), read-out: GI%
# How it was run: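 After a 24 h pre-incubation, cells received drug at five serially diluted concentrations; two untreated plates per line were TCA-fixed at drug addition as Tz. Adherent plates were fixed with cold TCA, stained with SRB and washed with 1% acetic acid.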
# HS 578 T = settings: Homo sapiens; for inhibition at 10 µM: HS 578 T (Breast cancer), read-out: GI%
# How it was run: as §1
# KM12 = settings: Homo sapiens; for inhibition at 10 µM: KM12 (Colon cancer), read-out: GI%
# How it was run: as §1
# MALME-3 M = settings: Homo sapiens; for inhibition at 10 µM: MALME-3 M (Melanoma), read-out: GI%
# How it was run: as §1
# MCF7 = settings: Homo sapiens; for inhibition at 10 µM: MCF7 (Breast cancer), read-out: GI%
# How it was run: as §1
# MDA-MB-231/ATCC = settings: Homo sapiens; for inhibition at 10 µM: MDA-MB-231/ATCC (Breast cancer), read-out: GI%
# How it was run: as §1
# MDA-MB-468 = settings: Homo sapiens; for inhibition at 10 µM: MDA-MB-468 (Breast cancer), read-out: GI%
# How it was run: as §1
# MOLT-4 = settings: Homo sapiens; for inhibition at 10 µM: MOLT-4 (Leukemia), read-out: GI%
# How it was run: as §1
# NCI-H226 = settings: Homo sapiens; for inhibition at 10 µM: NCI-H226 (Non-small cell lung cancer), read-out: GI%
# How it was run: as §1
# NCI-H23 = settings: Homo sapiens; for inhibition at 10 µM: NCI-H23 (Non-small cell lung cancer), read-out: GI%
# How it was run: as §1
# OVCAR-5 = settings: Homo sapiens; for inhibition at 10 µM: OVCAR-5 (Ovarian cancer), read-out: GI%
# How it was run: as §1
# PC-3 = settings: Homo sapiens; for inhibition at 10 µM: PC-3 (Prostate cancer), read-out: GI%
# How it was run: as §1
# RXF 393 = settings: Homo sapiens; for inhibition at 10 µM: RXF 393 (Renal cancer), read-out: GI%
# How it was run: as §1
# SF-268 = settings: Homo sapiens; for inhibition at 10 µM: SF-268 (CNS cancer), read-out: GI%
# How it was run: as §1
# SF-539 = settings: Homo sapiens; for inhibition at 10 µM: SF-539 (CNS cancer), read-out: GI%
# How it was run: as §1
# SK-MEL-28 = settings: Homo sapiens; for inhibition at 10 µM: SK-MEL-28 (Melanoma), read-out: GI%
# How it was run: as §1
# SK-MEL-5 = settings: Homo sapiens; for inhibition at 10 µM: SK-MEL-5 (Melanoma), read-out: GI%
# How it was run: as §1
# SNB-19 = settings: Homo sapiens; for inhibition at 10 µM: SNB-19 (CNS cancer), read-out: GI%
# How it was run: as §1
# SW-620 = settings: Homo sapiens; for inhibition at 10 µM: SW-620 (Colon cancer), read-out: GI%
# How it was run: as §1
# T-47D = settings: Homo sapiens, T47D; for inhibition at 10 µM: T-47D (Breast cancer), read-out: GI%
# How it was run: as §1
# U251 = settings: Homo sapiens, U-251; for inhibition at 10 µM: U251 (CNS cancer), read-out: GI%
# How it was run: as §1
# UACC-62 = settings: Homo sapiens; for inhibition at 10 µM: UACC-62 (Melanoma), read-out: GI%
# How it was run: as §1
# UO-31 = settings: Homo sapiens; for inhibition at 10 µM: UO-31 (Renal cancer), read-out: GI%
# How it was run: as §1
smiles,measurement,setting,value
"COc1cc(C=NNC(=O)c2ccc3[nH]c(-c4ccc(Cl)cc4)nc3c2)cc(OC)c1OC [8u, 2-(4-Chlorophenyl)-N'-(3,4,5-trimethoxybenzylidene)-1H-benzo[d]imidazole-5-carbohydrazide]",inhibition at 10 µM,786–0,> 100%
same,GI50,"786–0; 786–0, Renal cancer, five-dose",4.88 µM
same,inhibition at 10 µM,A498,> 100%
same,GI50,"A498; A498, Renal cancer, five-dose",26.4 µM
same,inhibition at 10 µM,HCT-15,44.3%
same,GI50,"HCT-15; HCT-15, Colon cancer, five-dose",73 µM
same,inhibition at 10 µM,HL-60(TB),67.8%
same,GI50,"HL-60(TB); HL-60(TB), Leukemia, five-dose",3.9 µM
same,inhibition at 10 µM,HS 578 T,> 100%
same,GI50,"HS 578 T; HS 578 T, Breast cancer, five-dose",2580 nM
same,inhibition at 10 µM,KM12,> 100%
same,GI50,"KM12; KM12, Colon cancer, five-dose",4.5 µM
same,inhibition at 10 µM,MALME-3 M,> 100%
same,GI50,"MALME-3 M; MALME-3 M, Melanoma, five-dose",1120 nM
same,inhibition at 10 µM,MCF7,> 100%
same,GI50,"MCF7; MCF7, Breast cancer, five-dose",660 nM
same,inhibition at 10 µM,MDA-MB-231/ATCC,> 100%
same,GI50,"MDA-MB-231/ATCC; MDA-MB-231/ATCC, Breast cancer, five-dose",3.39 µM
same,inhibition at 10 µM,MDA-MB-468,> 100%
same,GI50,"MDA-MB-468; MDA-MB-468, Breast cancer, five-dose",3.27 µM
same,inhibition at 10 µM,MOLT-4,96%
same,GI50,"MOLT-4; MOLT-4, Leukemia, five-dose",3.58 µM
same,inhibition at 10 µM,NCI-H226,> 100%
same,GI50,"NCI-H226; NCI-H226, Non-small cell lung cancer, five-dose",1310 nM
same,inhibition at 10 µM,NCI-H23,> 100%
same,GI50,"NCI-H23; NCI-H23, Non-small cell lung cancer, five-dose",4.72 µM
same,inhibition at 10 µM,OVCAR-5,37.4%
same,GI50,"OVCAR-5; OVCAR-5, Ovarian cancer, five-dose",15.6 µM
same,inhibition at 10 µM,PC-3,> 100%
same,GI50,"PC-3; PC-3, Prostate cancer, five-dose",5.73 µM
same,inhibition at 10 µM,RXF 393,> 100%
same,GI50,"RXF 393; RXF 393, Renal cancer, five-dose",2220 nM
same,inhibition at 10 µM,SF-268,> 100%
same,GI50,"SF-268; SF-268, CNS cancer, five-dose",4.4 µM
same,inhibition at 10 µM,SF-539,> 100%
same,GI50,"SF-539; SF-539, CNS cancer, five-dose",2020 nM
same,inhibition at 10 µM,SK-MEL-28,> 100%
same,GI50,"SK-MEL-28; SK-MEL-28, Melanoma, five-dose",1830 nM
same,inhibition at 10 µM,SK-MEL-5,> 100%
same,GI50,"SK-MEL-5; SK-MEL-5, Melanoma, five-dose",2830 nM
same,inhibition at 10 µM,SNB-19,> 100%
same,GI50,"SNB-19; SNB-19, CNS cancer, five-dose",3.42 µM
same,inhibition at 10 µM,SW-620,> 100%
same,GI50,"SW-620; SW-620, Colon cancer, five-dose",4.4 µM
same,inhibition at 10 µM,T-47D,> 100%
same,GI50,"T-47D; T-47D, Breast cancer, five-dose",3.48 µM
same,inhibition at 10 µM,U251,> 100%
same,GI50,"U251; U251, CNS cancer, five-dose",2590 nM
same,inhibition at 10 µM,UACC-62,> 100%
same,GI50,"UACC-62; UACC-62, Melanoma, five-dose",1240 nM
same,inhibition at 10 µM,UO-31,41.1%
same,GI50,"UO-31; UO-31, Renal cancer, five-dose",> 100 µM
"COc1ccc(-c2nc3cc(C(=O)NN=Cc4cccc(O)c4)ccc3[nH]2)cc1 [8i, N'-(3-Hydroxybenzylidene)-2-(4-methoxyphenyl)-1H-benzo[d]imidazole-5-carbohydrazide]",inhibition at 10 µM,786–0,23.4%
same,inhibition at 10 µM,A498,< 5%
same,inhibition at 10 µM,HCT-15,5.17%
same,inhibition at 10 µM,HL-60(TB),55.1%
same,inhibition at 10 µM,HS 578 T,52.6%
same,inhibition at 10 µM,KM12,38.7%
same,inhibition at 10 µM,MALME-3 M,> 100%
same,inhibition at 10 µM,MCF7,88.2%
same,inhibition at 10 µM,MDA-MB-231/ATCC,22.4%
same,inhibition at 10 µM,MDA-MB-468,54.6%
same,inhibition at 10 µM,MOLT-4,79%
same,inhibition at 10 µM,NCI-H226,7.75%
same,inhibition at 10 µM,NCI-H23,6.56%
same,inhibition at 10 µM,OVCAR-5,< 5%
same,inhibition at 10 µM,PC-3,34.4%
same,inhibition at 10 µM,RXF 393,14.5%
same,inhibition at 10 µM,SF-268,37.4%
same,inhibition at 10 µM,SF-539,53.3%
same,inhibition at 10 µM,SK-MEL-28,52.9%
same,inhibition at 10 µM,SK-MEL-5,40.5%
same,inhibition at 10 µM,SNB-19,15.8%
same,inhibition at 10 µM,SW-620,6.72%
same,inhibition at 10 µM,T-47D,86.8%
same,inhibition at 10 µM,U251,32.1%
same,inhibition at 10 µM,UACC-62,50.8%
same,inhibition at 10 µM,UO-31,10.5%
